Tests used:
pancreatic NTX tumors = test: Chemoresistance of tumor cell subpopulations in mice bearing pancreatic NTX tumors
Experimental: Mice then received twice weekly intraperitoneal dosing of 15 mg/kg irinotecan or 25 mg/kg gemcitabine, respectively, for a period of approximately 20 days before they were euthanized for tumor resection and cellular analysis.
Harvested tumors were then dissociated and constituent single cells were analyzed by flow cytometry.

colorectal NTX tumors = test: Chemoresistance of tumor cell subpopulations in mice bearing colorectal NTX tumors; type: in vivo; conditions: 15 mg/kg twice weekly
Experimental: To assess chemoresistance of tumor cell subpopulations, in vivo cohorts of mice bearing NTX colorectal tumors were randomized into two groups, such that the average tumor volume for each group was roughly equal. The groups were then treated twice weekly with either 15 mg/kg irinotecan or an equivalent volume of vehicle buffer. Tumor volumes and animal health were monitored and recorded twice weekly, a day prior to each injection.

| SMILES | tumor volume (growth of treated tumors) (pancreatic NTX tumors; 25 mg/kg intraperitoneal twice weekly, vs vehicle-treated tumors that continued to grow unabated, FIG. 25A) | residual tumor cell marker phenotype (CD46 expression) (pancreatic NTX tumors; 25 mg/kg twice weekly, flow cytometry of harvested tumors, vehicle vs treated, FIG. 25B) | frequency of cells with TPC phenotype (CD46hi CD324+ CD66c-) among live human cells, treated vs saline-treated (colorectal NTX tumors; flow cytometry of harvested tumors, FIGS. 24B and 24C) | CD66c phenotype of residual cells among the CD46hi CD324+ population (colorectal NTX tumors; flow cytometry, in vehicle-treated tumors most residual cells were CD66c+, FIG. 24D) |
| --- | --- | --- | --- | --- |
| Nc1ccn([C@@H]2O[C@H](CO)[C@@H](O)C2(F)F)c(=O)n1 [gemcitabine] | decreased in volume | enrichment for tumor cells expressing markers indicative of TIC |  |  |
| CCc1c2c(nc3ccc(OC(=O)N4CCC(N5CCCCC5)CC4)cc13)-c1cc3c(c(=O)n1C2)COC(=O)[C@]3(O)CC [irinotecan] |  |  | more than 2.5 fold | most residual cells were CD66c^− |
